Source: patent US10590115B2, “Tetrahydroquinazoline derivatives useful as anticancer agents” (PFIZER INC., priority 2018, dated 2020)

How the values were obtained:
[1] = molecular target: T1, GDP-loaded kRas (1-169) G12C, C51S, C80L, C118S (Homo sapiens, UniProt P01116, C118S/C51S/C80L/G12C); assay: Mass Spectrometry Reactivity Assay (MSRA), covalent adduct with kRas G12C; type: binding; conditions: 0.5 h at room temperature; 5 μM KRas protein; typical final concentration of the compounds 10 μM
T1 construct: GDP-loaded kRas (1-169) G12C, C51S, C80L, C118S
Method: Mass Spectrometry Reactivity Assay (MSRA)
Compounds presented in the present invention covalently bind to kRas G12C using MSRA to detect a covalent adduct of the exemplary compound and kRas G12C. GDP-loaded kRas (1-169) G12C, C51S, C80L, C118S were diluted in the protein assay buffer 25 mM Hepes pH7.5, 200 mM NaCl, 5% glycerol to concentration of 5 μM and 20 μl of protein was transferred into 96-well plate. […] See K-Ras(G12C) inhibitors allosterically control GTP affinity and effector interactions; Ostrem J M, Peters U, Sos M L, Wells J A, Shokat K M; Nature. 2013, Nov. 28; 503(7477):548-51.
Exemplary compounds dissolved in DMSO were diluted 100-fold into solution containing 20 μl of 5 μM KRas protein in the 96-well plate to initiate the reaction. Mosquito (TPP Lab tech) liquid handling robot was used to add compounds to protein solution. Typical final concentration of the compounds was 10 μM. The plates were placed on a shaker for 1 min at RT, sealed and incubated at room temperature for specified time period. 5 μl of reaction mix was added to 10 μl of 0.2% formic acid stop solution and mixed well. Typical end points were 30, 120, 600 and 1440 min.
Data were collected using Waters Acquity H-class UPLC system/Xevo G2-XS TOF mass spectrometer. The protein was injected in their liquid phase onto a Bruker Microtrap protein column TR1/15109/03. The following buffers were used to set LC gradient: Buffer A: 0.2% formic acid H20; B: 0.2% formic acid CAN. The protein was eluted from the column using the following LC Gradient: 0-0.4 min, 10% B to 30% B; 0.4 min-2.4 min, to 90% B, 2.5 min, 10% B, 3 min, 10% B. Initial data analysis was performed using MaxEnt software right after data acquisition.
The standard auto processing function was used to define percentage of unmodified and modified kRas protein using MexEnt software right after data acquisition. The highest peak was defined as 100% while smaller peak as assigned the number defined by autoprocessing function. The percent of modification corresponding to modified with exemplary compound and unmodified KRas GDP-loaded kRas (1-169) G12C, C51S, C80L, C118S were exported to Xcel data analysis software.
The percent of modified protein at the defined concentration of exemplary compound was calculated using the following formula: % mod=Num of modified peak/Sum of modified+unmodified.

[2] = molecular target: T2, KRAS G12C in MiaPaCa2 cells (Homo sapiens, UniProt P01116, G12C); assay: MiaPaCa2 Cell Activity Assay (Raf-1 RBD capture of active Ras, MSD); type: cell-based; conditions: MIAPaCa-2 cells, 6 hours treatment; assay limit is 30.0 μM
T2 construct: endogenous in cells; host or cells: MiaPaCa2
Method: MiaPaCa2 Cell Activity Assay
Compounds presented in the present invention lead to the accumulation of the GDP bound Ras upon treatment of human cancer cell line.
The accumulation of the GDP-bound KRAS G12C in cellular environment was measured based on the principle that KRAS G12C only binds to its downstream kinase; Raf-1 (MAP Kinase Kinase Kinase), when in its active-GTP bound state. In this state, Ras binded to a domain of Raf-1 kinase referred to as the Ras Binding Domain (RBD).
MiaPaCa2 cells were grown in DMEM medium (Gibco 11995) supplemented with 10% fetal bovine serum and 1% penicillin/streptomycin. Cells were seeded in 96-well tissue culture plates at a density of 40,000 cells/well and allowed to attach for 16-24 hours. Test compounds were prepared as a 10 mM stock in DMSO and serially diluted in 100% DMSO using a 3-fold dilution scheme. An intermediate 5× concentrated plate in complete growth medium was made and 25 μl/well was added to the 100 μl of cells for a final concentration of 0.1% DMSO. Each concentration of exemplary compound was tested in duplicate. The negative control wells were cells with control inhibitor at 10 μM, and the positive control wells were cells without drugs, DMSO only. Plates were incubated for 6 hours at 37° C., 5% CO2. Following treatment, cells were washed 3× with ice-cold PBS and 100 μl/well ice-cold 1× Assay/Lysis. Buffer with protease inhibitors was added (25 mM HEPES, pH 7.5, 150 mM NaCl, 1% NP-40, 10 mM MgCl2, 1 mM EDTA, 2% Glycerol). Following lysis samples were frozen at −80° C.
Raf-1 RBD (LJIC-1988A1) was diluted to 100 ng/well in PBS and 5 μl/well was spot coated onto MSD high bind SECTOR plates (L15XB). Plates were incubated at room temperature for 1 hour on an orbital shaker. Plates were washed with PBS/0.05% Tween-20 and 50 μl/well of thawed lysate samples were added, followed by 50 μl of 1% MSD Blocker A in PBS/0.05% Tween-20 (R93BA). Plates were incubated for 1 hour on an orbital shaker and washed with PBS/0.05% Tween-20. 25 μl/well of Anti-pan-Ras Antibody (Cell Biolabs 244003) diluted 1:3000 was added in 1% MSD Blocker A solution and plates were incubated for 1 hour on an orbital shaker and washed with PBS/0.05% Tween-20. SULFO-TAG goat anti-mouse secondary antibody (MSD R32AC) was diluted 1:500 in MSD Blocker A solution and added at 25 μL/well. Plates were incubated for 1 hour on an orbital shaker and washed with PBS/0.05% Tween-20. 150 μl/well of Read Buffer T (MSD R92TC) diluted 1:3 in H2O was added and plates were read on a Meso Scale Discovery Sector Imager S600.
KRAS signal was normalized to maximum inhibition and DMSO control values, and IC50 values were generated using a 4 parameter fit of the dose response curve. The decrease in IC50 reflects that the exemplary compound lead to a higher level of accumulation of GDP-bound KRAS G12C than another exemplary compounds at specific timepoint of treatment of cancer cell line.

Structure (SMILES)	% Modification (0.5 h) [1] [%]	IC50 [2] [µM]
C=CC(=O)N1CCN(c2ncnc3c2C[C@@H](C)[C@H](c2c(C)ccc4[nH]ncc24)C3)CC1 (relative stereo) [Example A4, 1-{4-[(6R,7R)-rel-6-methyl-7-(5-methyl-1H-indazol-4-yl)-5,6,7,8-tetrahydroquinazolin-4-yl]piperazin-1-yl}prop-2-en-1-one]	53	1.3
C=CC(=O)N1CCN(c2ncnc3c2C[C@@H](CO)[C@H](c2c(C)ccc4[nH]ncc24)C3)CC1 (relative stereo) [Example A7, 1-{4-[(6R,7R)-rel-6-(hydroxymethyl)-7-(5-methyl-1H-indazol-4-yl)-5,6,7,8-tetrahydroquinazolin-4-yl]piperazin-1-yl}prop-2-en-1-one]	11	29.3
C=CC(=O)N1CCN(c2ncnc3c2C[C@@H](C)[C@H](c2c(Cl)c(C)cc4[nH]ncc24)C3)CC1 (relative stereo) [Example A8, 1-{4-[(6R,7R)-rel-7-(5-chloro-6-methyl-1H-indazol-4-yl)-6-methyl-5,6,7,8-tetrahydroquinazolin-4-yl]piperazin-1-yl}prop-2-en-1-one]	54	0.462
C=CC(=O)N1CCN(c2ncnc3c2C[C@@H](C)[C@H](c2c(C)c(Cl)cc4[nH]ncc24)C3)CC1 (relative stereo) [Example A9, 1-{4-[(6R,7R)-rel-7-(6-chloro-5-methyl-1H-indazol-4-yl)-6-methyl-5,6,7,8-tetrahydroquinazolin-4-yl]piperazin-1-yl}prop-2-en-1-one]	77	0.155
C=CC(=O)N1CCN(c2nc(N3CCN(C)CC3)nc3c2C[C@@H](C)[C@H](c2c(C)ccc4[nH]ncc24)C3)CC1 (relative stereo) [Example F4]	22	4.29
C=CC(=O)N1CCN(c2nc(N3CC(CN(C)C)C3)nc3c2C[C@@H](C)[C@H](c2c(C)ccc4[nH]ncc24)C3)CC1 (relative stereo) [Example F9]	32	1
C=CC(=O)N1CCN(c2ncnc3c2CC[C@@H](c2c(C)ccc4[nH]ncc24)C3)CC1 (single isomer, unassigned) [Example A2]	0	
C=CC(=O)N1CCN(c2ncnc3c2CC[C@H](c2c(C)ccc4[nH]ncc24)C3)CC1 (single isomer, unassigned) [Example A3]	39	4.15
C=CC(=O)N1CCN(c2nc(N3CC(N(C)C)C3)nc3c2C[C@H](C)[C@@H](c2c(C)ccc4[nH]ncc24)C3)CC1 (single isomer, unassigned) [Example F3]	0	
C=CC(=O)N1CCN(c2nc(N3CC(N(C)C)C3)nc3c2C[C@H](C)[C@@H](c2c(Cl)ccc4[nH]ncc24)C3)CC1 (single isomer, unassigned) [Example F11]	8	
C=CC(=O)N1CCN(c2ncnc3c2CC[C@@H](c2cc(O)cc4ccccc24)C3)CC1 (single isomer, unassigned) [Example G2]	0	
C=CC(=O)N1CCN(c2ncnc3c2CC[C@H](c2cc(O)cc4ccccc24)C3)CC1 (single isomer, unassigned) [Example G3]	73	1.11
C=CC(=O)N1CCN(c2ncnc3c2CCC(c2c(C)ccc4[nH]ncc24)C3)CC1 (centres unmarked) [Example A1, 1-{4-[7-(5-methyl-1H-indazol-4-yl)-5,6,7,8-tetrahydroquinazolin-4-yl]piperazin-1-yl}prop-2-en-1-one]	14	7.86
C=CC(=O)N1CCN(c2ncnc3c2C[C@H](C)[C@@H](c2c(C)ccc4[nH]ncc24)C3)CC1 [Example A6, 1-{4-[(6S,7S)-6-methyl-7-(5-methyl-1H-indazol-4-yl)-5,6,7,8-tetrahydroquinazolin-4-yl]piperazin-1-yl}prop-2-en-1-one]	3	
C=CC(=O)N1CCN(c2ncnc3c2CCC(c2c(C)ccc4[nH]ncc24)C3)[C@@H](C)C1 (stereo partly drawn) [Example B2, 1-{(3S)-3-methyl-4-[7-(5-methyl-1H-indazol-4-yl)-5,6,7,8-tetrahydroquinazolin-4-yl]piperazin-1-yl}prop-2-en-1-one]	13	
C=CC(=O)N1CCN(c2nc(OCCCOC)nc3c2CCC(c2c(C)ccc4[nH]ncc24)C3)CC1 (centres unmarked) [Example C2, 1-{4-[2-(3-methoxypropoxy)-7-(5-methyl-1H-indazol-4-yl)-5,6,7,8-tetrahydroquinazolin-4-yl]piperazin-1-yl}prop-2-en-1-one]	22	
C=CC(=O)N1CCN(c2ncnc3c2C[C@@H](C)[C@H](c2c(CO)ccc4[nH]ncc24)C3)CC1 [Example D1, 1-(4-{(6R,7R)-7-[5-(hydroxymethyl)-1H-indazol-4-yl]-6-methyl-5,6,7,8-tetrahydroquinazolin-4-yl}piperazin-1-yl)prop-2-en-1-one]	12	
C=CC(=O)N1CCN(c2ncnc3c2C[C@@H](C)[C@H](c2c(C)cc(O)c4[nH]ncc24)C3)CC1 [Example E1, 1-{4-[(6R,7R)-7-(7-hydroxy-5-methyl-1H-indazol-4-yl)-6-methyl-5,6,7,8-tetrahydroquinazolin-4-yl]piperazin-1-yl}prop-2-en-1-one]	40	
C=CC(=O)N1CCN(c2ncnc3c2CCC(c2c(C(F)(F)F)ccc4[nH]ncc24)C3)CC1 (centres unmarked) [Example G1, 1-(4-(7-(5-(trifluoromethyl)-1H-indazol-4-yl)-5,6,7,8-tetrahydroquinazolin-4-yl)piperazin-1-yl)prop-2-en-1-one]	16	
C=CC(=O)N1CCN(c2nc(N3CC(NC)C3)nc3c2C[C@@H](C)[C@H](c2c(C)c(Cl)cc4[nH]ncc24)C3)CC1 [Example H1, 1-(4-{(6R,7R)-7-(6-chloro-5-methyl-1H-indazol-4-yl)-6-methyl-2-[3-(methylamino)azetidin-1-yl]-5,6,7,8-tetrahydroquinazolin-4-yl}piperazin-1-yl)prop-2-en-1-one]		0.178
